In patent US9206124B2, “Treatment of drug-resistant cancer with 2-aryl-2-(3-indolyl) acetohydroxamates” (New Mexico Technical Research Foundation, priority 2013, dated 2015):

What was measured:
[1] = system: HeLa cervical adenocarcinoma cells; assay: MTT antiproliferative assay, HeLa; format: cell-based; details: Homo sapiens, Table 1, 48 h treatment, ± SD, read-out: cell viability GI50, HeLa
Excerpt: (§1) This finding led to an exploration of the SAR analyses by synthesizing the first generation compounds 3 containing diverse substituents at different positions in the 2-aryl-2-(3-indolyl)acetohydroxamate skeleton and testing this series for in vitro growth inhibition using the MTT colorimetric assay against two cell lines, human HeLa cervical and MCF-7 breast adenocarcinomas (Table 1). It emerged from these experiments that the substitution on the benzene ring of the indole moiety (R^2≠H) was not tolerated (e.g., 3abfa and 3acfa), whereas the nitrogen could be derivatized (R^1≠H) with only a small activity drop (e.g., 3bafa vs 3aafa).
(§2) Human cancer cell lines were obtained from the American Type Culture Collection (ATCC, Manassas, Va., USA), the European Collection of Cell Culture (ECACC, Salisbury, UK) and the Deutsche Sammlung von Mikroorganismen and Zellkulturen (DSMZ, Braunschweig, Germany). Human cervical adenocarcinoma HeLa cells were cultured in DMEM supplemented with 10% fetal bovine serum (FBS). Human mammary carcinoma MCF-7 cells were cultured in RPMI supplemented with 10% FBS. The U87 cells (ATCC HTB-14) were cultured in DMEM culture medium, while the A549 cells (DSMZ ACC107) were cultured in RPMI culture medium supplemented with 10% heat-inactivated FBS. The glioblastoma multiforme Hs683 (ATCC HTB-138) and the T98G (ATCC CRL-1690) cell lines were cultivated in DMEM supplemented with 10% FBS. The Human uterine sarcoma MES-SA and MES-SA/Dx5 cells were cultured in RPMI-1640 medium supplemented with 10% FBS with MES SA/Dx5 maintained in the presence of 500 nM Doxorubicin (Sigma). SKMEL-28 cells (ATCC HTB72) and U373 glioblastoma cells (ECACC 08061901) were cultured in RPMI culture medium supplemented with 10% heat-inactivated FBS. Cell culture media were supplemented with 4 mM glutamine (Lonza code BE17-605E), 100 μg/mL gentamicin (Lonza code 17-5182), and penicillin-streptomycin (200 units/ml and 200 μg/ml) (Lonza code 17-602E). Neurosphere culture GBM 031810 was established using known methods and maintained in Neurobasal medium (Invitrogen Carlsbad, Calif.) with B27 supplement (20 ul/ml; Invitrogen), Glutamax (10 ul/ml; Invitrogen), fibroblast growth factor-2 (20 ng/ml; Peprotech, Rocky Hill, N.J., USA), epidermal growth factor (20 ng/ml; Peprotech), heparin (32 IE/ml; Sigma Aldrich, St. Louis, Mo.), and penicillin-streptomycin (1×, Invitrogen). Growth factors and heparin were renewed twice weekly. All cell lines were cultured in T25 flasks, maintained and grown at 37° C., 95% humidity, 5% CO2.
(§3) Antiproliferative properties of the synthesized compounds were evaluated by the MTT assay. All compounds were dissolved in DMSO at a concentration of either 100 mM or 50 mM prior to cell treatment. The cells were trypsinized and seeded at 4×10^3 cells per well into 96-well plates. The cells were grown for 24 h, treated with compounds at concentrations ranging from 0.001 to 100 μM and incubated for 48 h in 200 μL media. 20 μL of MTT reagent in serum free medium (5 mg/mL) was added to each well and incubated further for 2 h. Media was removed and the resulting formazan crystals were re-solubilized in 200 μL of DMSO. A490 was measured using a Molecular Devices Thermomax plate reader. The experiments were performed in quadruplicate and repeated at least twice for each compound per cell line. Cells treated with 0.1% DMSO were used as a negative control; 1 μM phenyl arsine oxide (PAO) was used as a positive control.

[2] = system: MCF-7 breast adenocarcinoma cells; assay: MTT antiproliferative assay, MCF-7; format: cell-based; details: Homo sapiens, MCF7, Table 1, 48 h treatment, ± SD, read-out: cell viability GI50, MCF7
Excerpt: as §1, §2, §3

[3] = system: Hs683 anaplastic oligodendroglioma cells; assay: MTT antiproliferative assay, Hs683; format: cell-based; details: Homo sapiens, Hs 683, 48 h treatment, ± SD, apoptosis-sensitive reference, read-out: GI50 in vitro, Hs683
Procedure: (§4) As part of the ongoing efforts aimed at identification of compounds active against cancer cells displaying resistance to proapoptotic agents, the selected 2-aryl-2-(3-indolyl)-acetohydroxamates were evaluated for in vitro growth inhibition against a panel of additional cancer cell lines including those resistant to various proapoptotic stimuli, such as human T98G and U87 glioblastoma and human A549 non-small-cell-lung cancer (NSCLC), as well as an apoptosis-sensitive tumor model, such as human Hs683 anaplastic oligodendroglioma, used as a reference. The data reveal that for the most part these compounds retain the single-digit antiproliferatve GI50 values in this challenging cancer cell panel.
as §2, §3

U87 glioblastoma cells = assay: MTT antiproliferative assay, U87; format: cell-based, human
Procedure: as §4, §2, §3

[4] = system: A549 non-small-cell-lung cancer cells; assay: MTT antiproliferative assay, A549; format: cell-based, human
Procedure: as §4, §2, §3

[5] = system: MES-SA uterine sarcoma cells; assay: MTT antiproliferative assay, MES-SA; format: cell-based; details: Homo sapiens, 48 h treatment, ± SD, read-out: GI50 in vitro, MES-SA
Procedure: Compared with the intrinsic drug resistance, as described above for such cancers as glioblastoma and melanoma, a large variety of tumors can also develop resistance to anticancer drugs resulting in MDR as explained previously. To assess whether the hydroxamates can overcome this resistance mechanism, selected hydroxamates were tested against MDR cells (Table 4). The MDR uterine sarcoma cell line MES-SA/Dx5 was utilized for this experiment. This cell line was established from the parent uterine sarcoma MES-SA, grown in the presence of increasing concentrations of doxorubicin and known to be resistant to a number of P-gp substrates. […] In contrast, there was only a small variation in the sensitivities of the two cell lines towards the hydroxamates indicating their potential to overcome clinical multi-drug resistance.
as §2, §3

U373 glioblastoma cells = assay: Quantitative videomicroscopy, U373; format: cell-based, human; details: 25 μM
Procedure: To obtain insight into the effectiveness of 2-aryl-2-(3-indolyl)acetohydroxamates against apoptosis-resistant cancers, computer-assisted phase-contrast microscopy (quantitative videomicroscopy) was employed to observe the phenotypic morphological changes in cancer cells as they are treated with these compounds. […] Based on the phase contrast pictures obtained by means of quantitative videomicroscopy, a global growth ratio (GGR) was calculated, which corresponds to the ratio of the mean number of cells present in a given image captured in the experiment (in this case after 24, 48 and 72 h) to the number of cells present in the first image (at 0 h). The ratio obtained in the 3aafa-treated experiment was then divided by the ratio obtained in the control. […] Thus, the GGR calculations are consistent with the MTT colorimetric data and indicate that it is the cytostatic properties associated with the hydroxamates that are responsible for their antiproliferative effects against apoptosis-resistant cancer cells, at least at relevant concentrations (slightly above the GI50 values).
Human cancer cell lines were obtained from the American Type Culture Collection (ATCC, Manassas, Va., USA), the European Collection of Cell Culture (ECACC, Salisbury, UK) and the Deutsche Sammlung von Mikroorganismen and Zellkulturen (DSMZ, Braunschweig, Germany). […]

[6] = FIG. 3, increasing concentration

Which results are given for `O=C(NO)C(c1ccccc1)c1c(-c2ccc3ccccc3c2)[nH]c2ccccc12` (stereo not shown) [Compound 3aafa]?
GI50 [1]: 3.6 ± 0.5 µM; GI50 [2]: 3.4 ± 0.3 µM; GI50 [3]: 8.9 ± 0.4 µM; activity against cell populations resistant to proapoptotic agents, U87 (U87 glioblastoma cells; [6]): potent growth inhibitory properties against most of the cells; GI50 (U87 glioblastoma cells; Homo sapiens, 48 h treatment, MTT, ± SD, read-out: GI50 in vitro, U87): 9.5 ± 0.3 µM; activity against cell populations resistant to proapoptotic agents, A549 [4, 6]: potent growth inhibitory properties against most of the cells; GI50 ([4]; Homo sapiens, A549, 48 h treatment, MTT, ± SD, read-out: GI50 in vitro, A549): 2.8 ± 0.4 µM; GI50 [5]: 2 ± 0.2 µM; phenotypic effect, U373 (U373 glioblastoma cells; slightly exceeding GI50, FIG. 4): inhibits cancer cell proliferation without inducing cell death; global growth ratio (GGR), U373 (U373 glioblastoma cells; 72 h observation, treated/control): ca. 0.3
